Data on one molecule can be found in US5654008A, “Preparation of biodegradable microparticles containing a biologically active agent” (Alkermes Controlled Therapeutics Inc. II, priority 1996, dated 1997).

Each structure is given as a SMILES string.

`C#C[C@]1(O)CC[C@H]2[C@@H]3CCC4=CC(=O)CC[C@@H]4[C@H]3CC[C@@]21C` [NET, norethindrone]: the “NET release rate, effect of quench volume” value (0.25 to 1.5 L quench liquid per gram, possible minimum at 1 L) is “varies slightly with a possible minimum”. Under “at extreme ethyl acetate contents”, the “in vitro release, effect of ethyl acetate content of quench liquid” value was “quicker release”.
